Several values for one entry are separate records, joined by “and”; a condition that tells them apart may be missing. Identical values can stand only once. Counter-ions that a name gives are not always drawn. Like-named read-outs stand apart in the source and are kept apart here.
Tests used:
[1] = 14 week study, cited from earlier work
recombinant human MAO-A = molecular target: T1, recombinant human MAO-A (Homo sapiens, UniProt P21397); test: Cell-free Fluorescent Monoamine Oxidase A&B Detection Assay, MAO-A; type: biochemical; settings: for IC50: read-out: IC50 MAO-A
T1 sequence (P21397 1-527): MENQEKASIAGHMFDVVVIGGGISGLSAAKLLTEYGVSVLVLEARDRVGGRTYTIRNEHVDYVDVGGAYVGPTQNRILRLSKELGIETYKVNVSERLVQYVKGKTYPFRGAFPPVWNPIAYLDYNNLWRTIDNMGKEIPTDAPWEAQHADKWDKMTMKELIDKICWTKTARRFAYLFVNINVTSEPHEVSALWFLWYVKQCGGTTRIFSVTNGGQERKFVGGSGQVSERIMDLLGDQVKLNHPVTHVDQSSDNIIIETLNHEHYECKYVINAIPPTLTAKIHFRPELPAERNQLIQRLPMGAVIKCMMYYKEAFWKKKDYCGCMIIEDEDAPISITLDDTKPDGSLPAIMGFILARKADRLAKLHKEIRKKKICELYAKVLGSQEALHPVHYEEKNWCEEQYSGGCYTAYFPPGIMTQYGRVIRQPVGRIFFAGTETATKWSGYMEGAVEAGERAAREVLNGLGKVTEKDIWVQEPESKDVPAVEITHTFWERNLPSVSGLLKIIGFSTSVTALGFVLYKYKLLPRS
Experimental: (§1) The assay was repeated to confirm data.
(§2) MAO B specific inhibitory activity and selectivity over MAO A is assayed using a commercial kit [Fluoro MAO A and B detection kit (Cell Technology Inc™)]. This kit uses a non-fluorescent detection reagent to measure H2O2 released from the conversion of an MAO A and MAO B substrate specific to its aldehyde. Furthermore, H2O2 oxidizes the detection reagent in a 1:1 stoichiometry to produce a fluorescent product (resorufin). […] This information is then provided to the medicinal chemists to help direct synthesis of subsequent iterations.

recombinant human MAO-B = molecular target: T2, recombinant human MAO-B (Homo sapiens, UniProt P27338); test: Cell-free Fluorescent Monoamine Oxidase A&B Detection Assay, MAO-B; type: biochemical
T2 sequence (P27338 1-520): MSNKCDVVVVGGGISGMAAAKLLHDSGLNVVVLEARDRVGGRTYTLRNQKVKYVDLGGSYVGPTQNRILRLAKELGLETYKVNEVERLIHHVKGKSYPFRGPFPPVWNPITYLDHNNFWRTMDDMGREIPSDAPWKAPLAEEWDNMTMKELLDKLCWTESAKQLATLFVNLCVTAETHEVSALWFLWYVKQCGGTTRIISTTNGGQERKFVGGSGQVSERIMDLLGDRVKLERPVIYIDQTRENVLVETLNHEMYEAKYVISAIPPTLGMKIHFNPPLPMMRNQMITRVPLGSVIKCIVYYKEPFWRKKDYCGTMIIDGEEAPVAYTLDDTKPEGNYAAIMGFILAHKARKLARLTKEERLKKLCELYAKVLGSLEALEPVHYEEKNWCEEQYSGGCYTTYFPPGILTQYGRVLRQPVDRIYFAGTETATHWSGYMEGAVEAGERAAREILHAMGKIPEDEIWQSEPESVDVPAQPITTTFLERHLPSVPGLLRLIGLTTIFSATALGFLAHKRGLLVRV
Experimental: as §1, §2

[2] = system: Madin Darby canine kidney (MDCK-I) cells; test: TEER in MDCK-I cells; type: cell-based; settings: for 144-hour barrier (TEER) vs control: MDCK-I, treated at 72 hours; for effect on TEER (MAO A, B, AB inhibitors): no concentration given
Experimental: In each case, TEER was measured every 48 hours after treatment.
Transwell cultures were treated at 72 hours (T) post-cell plating.
Transepithelial Resistance (TER) is a common method to screen for barrier integrity. […] Fluorescein isothiocyanate conjugated 10 kD dextran (Invitrogen™) will be added to the apical Transwell™ compartment, fixed, and examined for dextran permeation (Umeda et al., 2006).
Amphiregulin (AR) is an EGFR binding ligand and may play a pivotal role in the previously described signaling axis (see FIGS. 15-17). […] (ii) GI [intestinal epithelial cell (IEC)] and (iii) classical [Madin-Darby canine kidney (MDCK-1)].

[3] = in vitro BBB permeability in MDCK-WT cells; settings: dog, MDCK
Description: Wildtype Madin-Darby canine cells (MDCK-WT) were used to predict CNS permeability of compounds PS-RG0103, PS-RG0216, PS-RG0245 and PS-AD0191. […] J Allergy Clin Immunol. 1990; 86(6 pt 2): p. 1025-8.
Novel MAO B inhibitors selected based on the above screening program will be screened using an in vitro model of blood brain barrier (BBB). Madin-Darby canine kidney (MDCK-WT) and MDCK cells transfected with the human MDR1 gene (MDCK-MDR1) are well established in vitro models used to predict a compound's ability to permeate the blood brain barrier (BBB). […] Apparent permeability (Papp), Efflux ratio (Papp B-A/Papp A-B), as well as the Net flux ratio (Efflux ratioMDCK-MDR1/Efflux ratioMDCK-WT) can be calculated to identify compound BBB permeability and identify compounds that are substrates of P-gp.

[4] = cell-free, recombinant human MAO-A
[5] = cell-free, recombinant human MAO-A, read-out: IC90 MAO-A

Row | SMILES | IC50 MAO-A (μM) (recombinant human MAO-A; [4]) | IC90 (recombinant human MAO-B) [µM] | IC50 (recombinant human MAO-B; read-out: IC50 MAO-B) | also measured
1 | C#CCN(C)[C@H](C)Cc1ccccc1 [L-selegiline] | – | – | – | total body fat reduction compared to control rats [1]: 30%; food intake vs untreated controls ([1]; rats): comparable; lower weight gain compared to untreated controls ([1]; rats): 14%; plasma leptin levels reduction ([1]; rats): 41%
2 | C[C@H](Cc1ccc(OCc2cccc(C#N)c2)cc1)N(C)CC(=O)O.Cl [PS-RG0172, (R)—N-(1-(4-((3-cyanobenzyl)oxy)phenyl)propan-2-yl)-N-methylglycine hydrochloride] | Does not | 1840 | 19.7 µM | –
3 | O=C(NCCN1CCOCC1)c1ccc(Cl)cc1 [moclobemide] | – | – | – | 144-hour barrier (TEER) vs control ([2]; 5 μm inhibitor): increased over control; barrier integrity at low doses ([2]; low doses): small increase in the barrier integrity; effect on TEER (MAO A, B, AB inhibitors) [2]: generally reduced TEER
4 | C#CCN(C)CCCOc1ccc(Cl)cc1Cl [Clorgyline] | – | – | – | IC90 (recombinant human MAO-A; read-out: IC90 MAO-A (μM)): 0.00624 µM; 144-hour barrier (TEER) vs control ([2]; 5 μm inhibitor): significantly reduced the barrier; 144-hour barrier (TEER) vs control ([2]; 40 μm inhibitor): significantly reduced the barrier; effect on TEER (MAO A, B, AB inhibitors) [2]: generally reduced TEER
5 | CN(CC(=O)O)[C@H](CC#N)Cc1ccc(OCc2ccccc2)cc1.Cl [PS-AD0186, (S)—N-(1-(4-(benzyloxy)phenyl)-3-cyanopropan-2-yl)-N-methylglycine] | Does not | 4.44 | 0.56 µM | –
6 | CN(CC(=O)O)Cc1ccccc1.Cl [PS-RG0019] | Does not | – | – | IC90 MAO-B (μM) (recombinant human MAO-B): Does not
7 | CN(CC(=O)O)Cc1cc(=O)oc2cc(Oc3ccccc3)ccc12.Cl [PS-RG0097] | Does not | – | – | IC90 MAO-B (μM) (recombinant human MAO-B): Does not
8 | C[C@H](Cc1ccc(OCc2ccccc2C#N)cc1)N(C)CC(=O)O.Cl [PS-RG0171, (R)—N-(1-(4-((2-cyanobenzyl)oxy)phenyl)propan-2-yl)-N-methylglycine hydrochloride] | Does not | 1080 | 13 µM | –
9 | CN(CCc1ccccc1)CC(=O)O.Cl [PS-RG0020] | Does not | – | – | IC90 MAO-B (μM) (recombinant human MAO-B): Does not
10 | C#CCN(C)CCc1ccccc1 [PS-RG0070] | – | 0.0306 | – | IC50 (recombinant human MAO-A; [4]): 12.5 µM; IC90 (recombinant human MAO-A; [5]): 126 µM; IC50 (recombinant human MAO-B; IC50 MAO-B (μM)): 0.0107 µM
11 | COC(=O)c1ccc(COc2ccc(C[C@@H](C)N(C)CC(=O)O)cc2)cc1.Cl [PS-RG0246, (R)—N-(1-(4-((4-(methoxycarbonyl)benzyl)oxy)phenyl)propan-2-yl)-N-methylglycine hydrochloride] | Does not | 10600 | 361 µM | –
12 | C[C@H](Cc1ccc(OCc2cccc(F)c2)cc1)N(C)CC(=O)O.Cl [PS-RG0173, (R)—N-(1-(4-((3-fluorobenzyl)oxy)phenyl)propan-2-yl)-N-methylglycine hydrochloride] | Does not | 13.5 | 0.785 µM | –
13 | CN(CC(=O)O)[C@H](CC#N)Cc1ccc(OCc2ccc(Cl)c(Cl)c2)cc1.Cl [PS-AD0191, (S)—N-(1-cyano-3-(4-((3,4-dichlorobenzyl)oxy)phenyl)propan-2-yl)-N-methylglycine] | – | 1.03 | 0.3 µM and 0.302 µM | IC50 (recombinant human MAO-A; [4]): 54.6 µM; IC90 (recombinant human MAO-A; [5]): 424 µM; Papp [3]: 7.9 ± 1.4 ×10⁻⁶ cm/s
14 | C[C@H](Cc1ccc(OCc2cccnc2)cc1)N(C)CC(=O)O.Cl.Cl [PS-RG0218] | Does not | – | – | IC90 MAO-B (μM) (recombinant human MAO-B): Does not
15 | CN(CCc1ccc(OCc2ccccc2)cc1)CC(=O)O.Cl [PS-RG0064, N,N-(4-(Benzyloxy)phenethyl)(methyl)glycine hydrochloride] | Does not | 252 | 7.33 µM | –
16 | C[C@H](Cc1ccc(OCc2ccc(C(=O)O)cc2)cc1)N(C)CC(=O)O.Cl [PS-AD0065 B, (R)-4-((4-(2-((carboxymethyl)(methyl)amino)propyl)phenoxy)methyl)benzoic acid hydrochloride] | Does not | 149 | 10 µM | –
17 | C#CCN(C)Cc1ccccc1 [pargyline] | – | – | – | 144-hour barrier (TEER) vs control ([2]; 5 μm inhibitor): increased over control; 144-hour barrier (TEER) vs control ([2]; 40 μm inhibitor): increased over control; effect on TEER (MAO A, B, AB inhibitors) [2]: increased TEER
18 | COc1cccc(COc2ccc(C[C@@H](C)N(C)CC(=O)O)cc2)c1 [PS-RG0264, (R)—N-(1-(4-((3-methoxybenzyl)oxy)phenyl)propan-2-yl)-N-methylglycine hydrochloride] | – | 50.5 | 2.22 µM | IC50 (recombinant human MAO-A; [4]): 359 µM; IC90 (recombinant human MAO-A; [5]): 78500 µM
19 | C[C@H](Cc1ccc(OCc2ccccc2)cc1)N(C)CC(=O)O [PS-RG0031A, N—((R)-(1-(4-(benzyloxy)phenyl)propan-2-yl)(methyl))glycine hydrochloride] | Does not | 30.5 | 0.908 µM | –
20 | C[C@H](Cc1ccc(OCc2ccc(C#N)cc2)cc1)N(C)CC(=O)O.Cl [PS-AD0065, (R)—N-(1-(4-((4-cyanobenzyl)oxy)phenyl)propan-2-yl)-N-methylglycine hydrochloride] | Does not | 81.1 | 3.28 µM | –
21 | CN(CC(=O)O)Cc1cc(=O)oc2cc(OCc3ccccc3)ccc12.Cl [PS-RG0098, N-((7-(benzyloxy)-2-oxo-2H-chromen-4-yl)methyl)-N-methylglycine hydrochloride] | Does not | 4.1 | 0.799 µM | –
22 | CN(CCc1ccc(Oc2ccccc2)cc1)CC(=O)O.Cl [PS-RG0058] | Does not | – | – | IC90 MAO-B (μM) (recombinant human MAO-B): Does not
23 | C[C@H](Cc1ccc(Oc2ccccc2)cc1)N(C)CC(=O)O [PS-RG0008, N—((R)-(1-(4-(phenoxy)phenyl)propan-2-yl)(methyl))glycine hydrochloride] | Does not | 331 | 69.2 µM | –
24 | C[C@H](Cc1ccc(OCC(=O)O)cc1)N(C)CC(=O)O.Cl [PS-RG0219] | Does not | – | – | IC90 MAO-B (μM) (recombinant human MAO-B): Does not
25 | CN(CC(=O)O)[C@H](CCO)Cc1ccc(OCc2ccccc2)cc1.Cl [PS-AD0179, (S)—N-(1-(4-(benzyloxy)phenyl)-4-hydroxybutan-2-yl)-N-methylglycine] | Does not | 167 | 7.82 µM | –
26 | CN(CC(=O)O)[C@H](CO)Cc1ccc(OCc2ccccc2)cc1 [PS-RG0188, (S)—N-(1-(4-(benzyloxy)phenyl)-3-hydroxypropan-2-yl)-N-methylglycine] | Does not | 19.7 | 0.738 µM | –
27 | O=C([O-])C1=N[C@@H](Cc2ccccc2)CO1.[Na+] [PS-RG0200] | Does not | – | – | IC90 MAO-B (μM) (recombinant human MAO-B): Does not

— US10196345B2, “MAO-B selective inhibitor compounds, pharmaceutical compositions thereof and uses thereof” (The University of British Columbia, priority 2013, dated 2019)
